Assay results taken from patent publication US4327097A, “Novel penicillins” (Toyama Chemical Co., Ltd., priority 1974, dated 1982).
≈ marks a conversion by molar mass, not a printed value.

Legend:
mouse = experiment: Toxicity, LD50 i.v. in mouse; format: in vivo; conditions: i.v. in mouse having a weight of 19±1 g
Description: The present penicillins and cephalosporins have generally low toxicity.

Salmonella typhi-murium = experiment: MIC against clinical isolates; format: cell-based; conditions: Table 5-5, clinical isolate; unit assumed
Pseudomonas aeruginosa = experiment: MIC against clinical isolates; format: cell-based; conditions: Table 5-3, clinical isolate, unit assumed
[1] = test system: β-lactamase, Pseudomonas aeruginosa GN 238; experiment: Resistant activity against β-lactamase, iodometric assay; format: biochemical; conditions: β-lactamase from Pseudomonas aeruginosa GN 238; Potassium Penicillin G = 100
Method in brief: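 Crude β-lactamase was the sonicated-cell supernatant from P. aeruginosa GN 238, grown 6 h at 37 °C and washed in 0.1 M phosphate pH 7.0. Compound stability to the enzyme measured iodometrically; values are relative activity with potassium penicillin G set at 100.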

Proteus rettgeri = experiment: MIC against clinical isolates; format: cell-based; conditions: Table 5-6, clinical isolate; unit assumed
Proteus mirabilis = experiment: MIC against clinical isolates; format: cell-based; conditions: Table 5-6, clinical isolate; unit assumed
Proteus vulgaris = experiment: MIC against clinical isolates; format: cell-based; conditions: Table 5-6, clinical isolate; unit assumed
[2] = test system: Staphylococcus aureus 209p; experiment: MIC, plate method, standard strains; format: cell-based; conditions: Table 3, standard strain, Heart infusion agar pH 7.4; unit assumed
Method in brief: (§1)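 Heart infusion agar, pH 7.4, plate method. Inoculum: 10^4 cells/plate (10^6 cells/ml). Read-out: MIC.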

Proteus vulgaris 3027 = experiment: MIC, plate method, standard strains; format: cell-based; conditions: Table 3, standard strain; unit assumed
Method in brief: as §1

Klebsiella pneumoniae [3] = experiment: MIC, plate method, standard strains; format: cell-based; conditions: Table 3, standard strain; unit assumed
Method in brief: as §1

Escherichia coli NIHJ = experiment: MIC, plate method, standard strains; format: cell-based; conditions: Table 3, standard strain; unit assumed
Method in brief: as §1

[4] = test system: Pseudomonas aeruginosa I.F.O.; experiment: MIC, plate method, standard strains; format: cell-based; conditions: Table 3, standard strain; unit assumed
Method in brief: as §1

Klebsiella pneumoniae [5] = experiment: MIC against clinical isolates; format: cell-based; conditions: Table 5-4, clinical isolate; unit assumed
Staphylococcus aureus = experiment: MIC against clinical isolates; format: cell-based; conditions: Table 5-1, clinical isolate; unit assumed
Escherichia coli = experiment: MIC against clinical isolates; format: cell-based; conditions: Table 5-2, clinical isolate; unit assumed
Shigella sonnei = experiment: MIC against clinical isolates; format: cell-based; conditions: Table 5-5, clinical isolate; unit assumed
Description: (§2) The minimum inhibitory concentration (MIC) was determined by the plate method disclosed in "Chemotherapy" (Japan), Vol. 16, (1968), pages 98-99. The culture medium used was a Heart infusion agar (pH 7.4). The number of the cells per plate used in the inoculum was 10^4 (10^6 cells/ml).
(§3) MIC was determined in the same manner as in the preceding paragraph (1).

Shigella flexneri = experiment: MIC against clinical isolates; format: cell-based; conditions: Table 5-5, clinical isolate; unit assumed
Description: as §2, §3

Question: With `CCN1CCN(C(=O)N[C@@H](C(=O)N[C@@H]2C(=O)N3[C@@H]2SC(C)(C)[C@@H]3C(=O)O)c2ccccc2)C(=O)C1=O` as the compound, how does the LD50 (mouse) read?
Answer: Its LD50 is “greater than 5 g/kg”.

Question: For `CC(C)N1CCN(C(=O)NC(C(=O)NC2C(=O)N3C2SC(C)(C)C3C(=O)O)c2ccccc2)C(=O)C1=O` (single isomer, unassigned) [Compound 40], which MIC Salmonella typhi-murium SL 2136 (Salmonella typhi-murium) is on record?
Answer: Its MIC Salmonella typhi-murium SL 2136 is > 200 µg/mL.

Question: What about the MIC Pseudomonas aeruginosa GN (Pseudomonas aeruginosa; strain number not given) of the same compound?
Answer: The MIC Pseudomonas aeruginosa GN was 6.25 µg/mL (≈ 11.8 µM).

Question: What about the MIC Pseudomonas aeruginosa GN 82 (Pseudomonas aeruginosa) of the same compound?
Answer: The MIC Pseudomonas aeruginosa GN 82 was 6.25 µg/mL (≈ 11.8 µM).

Question: And the MIC Pseudomonas aeruginosa GN 163 (Pseudomonas aeruginosa)?
Answer: The MIC Pseudomonas aeruginosa GN 163 was 6.25 µg/mL (≈ 11.8 µM).

Question: What about the MIC Pseudomonas aeruginosa GN 221 (Pseudomonas aeruginosa) of the same compound?
Answer: The MIC Pseudomonas aeruginosa GN 221 was 6.25 µg/mL (≈ 11.8 µM).

Question: What about the MIC Pseudomonas aeruginosa GN 376 (Pseudomonas aeruginosa) of the same compound?
Answer: Its MIC Pseudomonas aeruginosa GN 376 is 3.13 µg/mL (≈ 5.89 µM).

Question: What about the MIC Pseudomonas aeruginosa GN 383 (Pseudomonas aeruginosa) of the same compound?
Answer: Its MIC Pseudomonas aeruginosa GN 383 is 6.25 µg/mL (≈ 11.8 µM).

Question: What about the MIC Pseudomonas aeruginosa GN 1091 (Pseudomonas aeruginosa) of the same compound?
Answer: Its MIC Pseudomonas aeruginosa GN 1091 is 6.25 µg/mL (≈ 11.8 µM).

Question: And the MIC Pseudomonas aeruginosa GN 2987 (Pseudomonas aeruginosa)?
Answer: Its MIC Pseudomonas aeruginosa GN 2987 is 3.13 µg/mL (≈ 5.89 µM).

Question: And the “Relative activity (%), resistant activity against β-lactamase” value [1]?
Answer: The value was 15%.

Question: What about the MIC Proteus rettgeri (Proteus rettgeri) of the same compound?
Answer: Its MIC Proteus rettgeri is 6.25 µg/mL (≈ 11.8 µM).

Question: What about the MIC Proteus mirabilis (Proteus mirabilis) of the same compound?
Answer: Its MIC Proteus mirabilis is < 0.4 µg/mL.

Question: What about the MIC Proteus vulgaris (Proteus vulgaris) of the same compound?
Answer: The MIC Proteus vulgaris was < 0.4 µg/mL.

Question: What about the MIC Staphylococcus aureus 209p [2] of the same compound?
Answer: The MIC Staphylococcus aureus 209p was 0.4 µg/mL (≈ 0.752 µM).

Question: What about the MIC Proteus vulgaris 3027 (Proteus vulgaris 3027) of the same compound?
Answer: Its MIC Proteus vulgaris 3027 is 0.4 µg/mL (≈ 0.752 µM).

Question: What about the MIC Klebsiella pneumoniae (Klebsiella pneumoniae [3]) of the same compound?
Answer: Its MIC Klebsiella pneumoniae is 3.13 µg/mL (≈ 5.89 µM).

Question: And the MIC Esche--richin coil NIHJ (Escherichia coli NIHJ)?
Answer: The MIC Esche--richin coil NIHJ was < 0.1 µg/mL.

Question: And the MIC Pseudomonas aeruginosa I.F.C [4]?
Answer: Its MIC Pseudomonas aeruginosa I.F.C is 6.25 µg/mL (≈ 11.8 µM).

Question: What about the MIC Klebsiella pneumoniae GN 917 (Klebsiella pneumoniae [5]) of the same compound?
Answer: The MIC Klebsiella pneumoniae GN 917 was 6.25 µg/mL (≈ 11.8 µM).

Question: And the MIC Klebsiella pneumoniae GN 4081 (Klebsiella pneumoniae [5])?
Answer: The MIC Klebsiella pneumoniae GN 4081 was 100 µg/mL (≈ 188 µM).

Question: And the MIC Klebsiella pneumoniae GN 4117 (Klebsiella pneumoniae [5])?
Answer: The MIC Klebsiella pneumoniae GN 4117 was 50 µg/mL (≈ 94.1 µM).

Question: And the MIC Staphylococcus aureus F-1 (Staphylococcus aureus)?
Answer: The MIC Staphylococcus aureus F-1 was 6.25 µg/mL (≈ 11.8 µM).

Question: What about the MIC Staphylococcus aureus F-2 (Staphylococcus aureus) of the same compound?
Answer: Its MIC Staphylococcus aureus F-2 is 3.13 µg/mL (≈ 5.89 µM).

Question: And the MIC Staphylococcus aureus F-4 (Staphylococcus aureus)?
Answer: Its MIC Staphylococcus aureus F-4 is 6.25 µg/mL (≈ 11.8 µM).

Question: What about the MIC Staphylococcus aureus F-5 (Staphylococcus aureus) of the same compound?
Answer: The MIC Staphylococcus aureus F-5 was > 200 µg/mL.

Question: What about the MIC Staphylococcus aureus MS 8588 (Staphylococcus aureus) of the same compound?
Answer: The MIC Staphylococcus aureus MS 8588 was 3.13 µg/mL (≈ 5.89 µM).

Question: And the MIC Staphylococcus aureus MS 8596 (Staphylococcus aureus)?
Answer: The MIC Staphylococcus aureus MS 8596 was 3.13 µg/mL (≈ 5.89 µM).

Question: And the MIC Staphylococcus aureus MS 8684 (Staphylococcus aureus)?
Answer: The MIC Staphylococcus aureus MS 8684 was 3.13 µg/mL (≈ 5.89 µM).

Question: What about the MIC Escherichia coli GN 3452 (Escherichia coli) of the same compound?
Answer: Its MIC Escherichia coli GN 3452 is 1.57 µg/mL (≈ 2.95 µM).

Question: What about the MIC Escherichia coli GN 3465 (Escherichia coli) of the same compound?
Answer: Its MIC Escherichia coli GN 3465 is 50 µg/mL (≈ 94.1 µM).

Question: What about the MIC Escherichia coli GN 3481 (Escherichia coli) of the same compound?
Answer: The MIC Escherichia coli GN 3481 was 1.57 µg/mL (≈ 2.95 µM).

Question: And the MIC Escherichia coli GN 3611 (Escherichia coli)?
Answer: Its MIC Escherichia coli GN 3611 is > 200 µg/mL.

Question: What about the MIC Escherichia coli K-1 (Escherichia coli) of the same compound?
Answer: Its MIC Escherichia coli K-1 is 1.57 µg/mL (≈ 2.95 µM).

Question: And the MIC Escherichia coli K-2 (Escherichia coli)?
Answer: Its MIC Escherichia coli K-2 is 3.13 µg/mL (≈ 5.89 µM).

Question: What about the MIC Escherichia coli K-3 (Escherichia coli) of the same compound?
Answer: Its MIC Escherichia coli K-3 is > 200 µg/mL.

Question: What about the MIC Shigella sonnei JS 11232 (Shigella sonnei) of the same compound?
Answer: The MIC Shigella sonnei JS 11232 was 50 µg/mL (≈ 94.1 µM).

Question: And the MIC Shigella sonnei JS 11755 (Shigella sonnei)?
Answer: Its MIC Shigella sonnei JS 11755 is 3.13 µg/mL (≈ 5.89 µM).

Question: What about the MIC Shigella flexneri JS 11215 (Shigella flexneri) of the same compound?
Answer: Its MIC Shigella flexneri JS 11215 is 50 µg/mL (≈ 94.1 µM).

Question: And the MIC Shigella flexneri JS 11839 (Shigella flexneri)?
Answer: The MIC Shigella flexneri JS 11839 was 3.13 µg/mL (≈ 5.89 µM).
